# From US8206704B2, “Use of GCC ligands” (priority 2003, dated 2012)
# Entries after “also recorded” stand apart in the source; their conditions may differ. No end group written: not given here.
# Tests used:
# [1] = system: T84 cells; assay: DNA synthesis ([methyl-3H]thymidine incorporation), tumor cell proliferation; type: cell-based, human; conditions: for Effect of agent on inhibition of proliferation induced by ST: with ST, 1 μM KT5823, 50 μM RP8pCPT-cGMP, 0.5 μM KT5720, 50 μM RP-cAMPs, 10 μM milrinone, 200 μM L-DLT, 20 μM BAPTA, 50 μM DTR, 1 μM PHE, 100 nM CTX
# Description: T84 (passages 50-70) and SW480 (passage 100-120) human colon carcinoma cells, obtained from the American Type Culture Collection, were maintained at 37° C. (5% CO2) in DMEM/F12 containing 2.5 mM L-glutamine, 100 units/ml penicillin, 100 μg/ml streptomycin, and 10% (vol/vol) FBS.
# Exponentially growing cancer cells (˜60% confluent in 96-well plates) were synchronized by serum starvation in Eagle's minimal essential medium (EMEM) for 48 h, followed by proliferative induction with 10 mM L-glutamine (in EMEM) for 24 h. ST and other agents were added to cells 15 min before 0.2 μCi per well (1 Ci=37 GBq) of [methyl-3H]thymidine, which was added for 3 h, followed by quantification of [3H]thymidine incorporation into DNA (15).
# [2] = system: T84 cells; assay: 45Ca2+ transport (calcium influx); type: cell-based, human; conditions: ST 1 μM, 20 min; 8-br-cGMP 5 mM, 40 min
# Description: Exponentially growing T84 cells (40-80% confluent in 24-well plates) were incubated in media (S-MEM, Life Technologies, Rockville, Md.) containing low (300 μM) CaCl2 to maximize the signal-to-noise ratio for L-cis-diltiazem (L-DLT)-sensitive 45Ca2+ transport determinations. Cells were treated with ST, 8-br-cGMP, and/or L-DLT for the indicated times, followed by the addition of 1 μCi per well 45Ca2+ for the last 15 min. Incubations were terminated by washing four times in cold PBS buffer (145 mM NaCl/5 mM KCl/1 mM MgCl2/10 mM glucose/5 mM Hepes, pH 7.4) containing 0.1 mM EGTA, cells were solubilized with cold NaOH (0.1 M), and radioactivity was quantified in 100-μl aliquots.
# [3] = system: human T84 colon cancer cells; assay: Perforated whole-cell patch-clamp current measurements; type: cell-based; conditions: for Induction of L-DLT-sensitive membrane current: 500 nM ST, 2.5 mM 8-br-cGMP
# Description: The perforated mode of the whole-cell patch-clamp recording was applied to human T84 colon cancer cells. Membrane potential was controlled through the electrical access obtained by membrane perforation induced by amphotericin B (9, 10). The pipette solution supplemented by amphotericin B ([…]) contained: 140 mM KCl, 1 mM MgCl2, 5 mM EGTA, and 20 mM Hepes-KOH (pH 7.3). The bath solution contained (in mM): 136.5 mM NaCl, 5.4 mM KCl, 1.8 mM CaCl2, 0.5 mM MgCl2, 5.5 mM glucose, and 5 mM Hepes-NaOH (pH 7.4). Voltage-clamp recordings were performed with an Axopatch 1-C patch-clamp amplifier (Axon Instruments, Foster City, Calif.) at 31±1° C. using an HCC-100 temperature controller (Dagan Instruments, Minneapolis; ref. 19).
# [4] = system: human T84 colon cancer cells; assay: as above; type: cell-based; conditions: Ca-free solution, n=5
# [5] = target: cAMP-dependent protein kinase I and II; conditions: refs. 50 and 51; cited from earlier work
# [6] = target: PKG-I and -II; conditions: cited from earlier work
# [7] = system: human colorectal cancer cells; assay: Actin cytoskeleton organization (confocal microscopy, cell spreading); type: cell-based; conditions: ST 1 micromolar, confocal microscopy
# Text: ST prevented human colorectal cancer cells from organizing their actin cytoskeleton. […] The latter is a functional readout of the ability of cells to organize actin. Human colorectal cancer cells treated with ST cannot spread their bodies out in vitro. An inability to organize their actin cytoskeletons will prevent these cells from being able to migrate through tissues to metastasize.
# [8] = system: matrix metalloproteinase 9 release from human colorectal cancer cells; assay: Release of matrix metalloproteinase 9 (MMP 9 activity, western blot); type: cell-based; conditions: ST 1 micromolar
# Text: Preventing the secretion of this digestive enzyme will inhibit the ability of these tumor cells to invade the wall of the intestine. […] ST did this at a concentration of 1 micromolar.
# [9] = system: Caco 2 human colon carcinoma cells; assay: Inhibition of proliferation of cancer cells; type: cell-based; conditions: after exposure
# [10] = system: T84 human colon carcinoma cells; assay: Inhibition of proliferation of cancer cells; type: cell-based; conditions: after exposure
compound,measurement,setting,value
Nc1nc2c(nc(Br)n2[C@@H]2O[C@@H]3COP(=O)(O)O[C@H]3[C@H]2O)c(=O)[nH]1 [8-br-cGMP],Inhibition of cell proliferation / DNA synthesis by 8-br-cGMP,[1]; 8-br-cGMP 5 mM,inhibited tumor cell DNA synthesis; also recorded: inhibition of cell proliferation
same,Influx of 45Ca2+ into colon cancer cells,[2],induced influx
same,"Induction of Ca2+-dependent K+ current (KCa), charybdotoxin-sensitive",[3],induced
same,Reversal potential derived from the induced current-voltage relationship,[3],~−70 mV
same,Induction of L-DLT-sensitive membrane current,[3],induced an L-DLT-sensitive current
same,Induction of L-DLT-sensitive membrane current,[3]; listed as 8-Br-cGMP,induces an L-DLT-sensitive current
same,Induced current in the presence of [Ca2+]ext,"[3]; control, 1.8 mM CaCl2, n=5",0.21±0.04 nA
same,Shift of the reversal potential ΔEm,"[3]; ramp pulses, holding potential −40 mV, mean±SEM",−25.8±4.6 mV
same,Induced current after removal of [Ca2+]ext,[4],0.07±0.04 nA
CC(=O)OCOC(=O)CN(CC(=O)OCOC(C)=O)c1ccccc1OCCOc1ccccc1N(CC(=O)OCOC(C)=O)CC(=O)OCOC(C)=O [BAPTA-AM],Effect of agent on inhibition of proliferation induced by ST,[1],reversal; also recorded: abolished
O=C1CN(/N=C/c2ccc(-c3ccc([N+](=O)[O-])cc3)o2)C(O)=N1 [Dantrolene],Effect of agent on inhibition of proliferation induced by ST,[1],did not reverse
same,Effect of agent on inhibition of proliferation induced by ST,[1]; listed as dantrolene,did not affect
C[C@H](CCC(=O)O)C[C@H](C)C[C@H](C)C(=O)/C=C(\O)[C@H](C)C[C@H](C)C/C=C/[C@@H](C)[C@@H](O)[C@@H](C)[C@@H](O)C[C@@H]1CC[C@@](C)([C@H]2CC[C@@](C)([C@@H](C)O)O2)O1 [Ionomycin],Effect on cell proliferation of agent on its own compared with ST,"[1]; ionomycin 1 μM, ST 1 μM",mimicked
CCCCCCOC(=O)[C@]1(O)C[C@@H]2O[C@@]1(C)n1c3ccccc3c3c4c(c5c6ccccc6n2c5c31)C(=O)NC4 [KT5720],Effect of agent on inhibition of proliferation induced by ST,[1],did not alter
same,Ki,[5],56 nM
COC(=O)[C@@]1(OC)C[C@H]2O[C@]1(C)n1c3ccccc3c3c4c(c5c6ccccc6n2c5c31)C(=O)N(C)C4 [KT5823],Effect of agent on inhibition of proliferation induced by ST,[1],did not alter
same,Ki,[6],234 nM
Nc1nc2c(nc(Sc3ccc(Cl)cc3)n2C2OC3COP(O)(=S)OC3C2O)c(=O)[nH]1 (centres unmarked) [RP8pCPT-cGMP],Effect of agent on inhibition of proliferation induced by ST,[1],did not alter
same,Ki,[6],500 nM
Nc1ncnc2c1ncn2[C@@H]1O[C@@H]2CO[P@@](O)(=S)O[C@H]2[C@H]1O [RP-cAMPs],Effect of agent on inhibition of proliferation induced by ST,[1],did not alter
same,Ki,[5],10000 nM
Nc1nc2c(ncn2[C@@H]2O[C@@H]3COP(=O)(O)O[C@H]3[C@H]2O)c(=O)[nH]1 [cyclic GMP],Organization of actin cytoskeleton,[7],prevented this organization
same,Release of matrix metalloproteinase 9,[8],precisely mimicked
Cc1[nH]c(=O)c(C#N)cc1-c1ccncc1 [milrinone],Effect of agent on inhibition of proliferation induced by ST,[1],did not alter
NC(=Nc1ccccc1)NC(=O)c1nc(Cl)c(N)nc1N [phenamil],Effect of agent on inhibition of proliferation induced by ST,[1],did not affect; also recorded: did not reverse
charybdotoxin (QFTNVSCTTSKECWSVCQRLHNTSRGKCMNKKCRCYS),Effect of agent on inhibition of proliferation induced by ST,[1],absence of charybdotoxin effect
same,Effect of agent on inhibition of proliferation induced by ST,[1]; listed as CTX,did not reverse
"uroguanylin: homologous ST receptor binding peptide produced locally in the intestine (NDDCELCVNVACTGCL; ends and bridges not checked; cysteine pairing not given here; UniProt Q16661 97-112, looked up)",Inhibition of proliferation of cancer cells,[9],inhibit the proliferation
same,Inhibition of proliferation of cancer cells,[10],inhibit the proliferation
